Key:
human Lck kinase = human Lck kinase (Homo sapiens, UniProt P06239); assay: Lck Inhibition Assay: Spectrophotometric Assay; type: biochemical; conditions: 60 nM Lck, 500 μM ATP, 30° C., coupled NADH spectrophotometric assay; read-out: Ki (inhibit Lck)
Method: The compounds are evaluated as inhibitors of human Lck kinase using a spectrophotometric assay.
Lck Inhibition Assay: Spectrophotometric Assay
An assay buffer solution was prepared which consisted of 25 mM HEPES (pH 7.5), 10 mM MgCl2, 250 μM NADH, 3 mM phosphoenolpyruvate, 43 μg/mL pyruvate kinase, 14 μg/mL lactate dehydrogenase, 560 μM ATP and 67 nM Lck. To 60 μL of this solution, in a 96 well plate, was added 2 μL of test compound stock solution in DMSO and the mixture allowed to equilibrate for 10 minutes at 30° C. The enzyme reaction was initiated by the addition of 5 μL 15 mg/mL poly Glu, Tyr (4:1) prepared in 25 mM HEPES (pH 7.5). Final assay concentrations of Lck and ATP are 60 nM and 500 μM respectively. Initial rate data was determined from the rate of change of absorbance at 340 nm (corresponding to stoichiometric consumption of NADH) using a Molecular Devices Spectramax plate reader (Sunnyvale, Calif.) over 10 min at 30° C. For each Ki determination 8 data points covering the test compound compound concentration range of 0-7.5 μM are obtained in duplicate. Ki values are calculated from initial rate data by non-linear regression using the Prism software package (Prism 4.0a, Graphpad Software, San Diego, Calif.).

human Src kinase = human Src kinase (Homo sapiens, UniProt P12931); assay: Src Inhibition Assay: Spectrophotometric Assay; type: biochemical; conditions: 25 nM Src, 100 μM ATP, 30° C., coupled NADH spectrophotometric assay; read-out: Ki (inhibit Src)
Chain of human Src kinase (P12931 whole entry): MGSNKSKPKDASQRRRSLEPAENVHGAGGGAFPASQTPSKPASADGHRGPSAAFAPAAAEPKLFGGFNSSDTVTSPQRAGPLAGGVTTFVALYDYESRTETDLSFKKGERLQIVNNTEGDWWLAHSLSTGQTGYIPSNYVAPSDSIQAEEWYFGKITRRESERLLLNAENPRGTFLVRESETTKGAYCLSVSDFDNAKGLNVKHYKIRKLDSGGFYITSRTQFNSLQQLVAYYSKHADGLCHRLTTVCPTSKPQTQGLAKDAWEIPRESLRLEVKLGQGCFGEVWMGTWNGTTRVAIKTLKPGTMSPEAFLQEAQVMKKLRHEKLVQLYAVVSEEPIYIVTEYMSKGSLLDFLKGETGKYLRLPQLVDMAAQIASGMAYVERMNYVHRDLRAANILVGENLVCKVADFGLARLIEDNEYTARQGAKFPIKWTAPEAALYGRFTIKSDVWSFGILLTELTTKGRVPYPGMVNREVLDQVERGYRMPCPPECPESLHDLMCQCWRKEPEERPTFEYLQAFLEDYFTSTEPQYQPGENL
Method: The compounds are evaluated as inhibitors of human Src kinase using a spectrophotometric assay.
Src Inhibition Assay: Spectrophotometric Assay
An assay buffer solution was prepared which consisted of 25 mM HEPES (pH 7.5), 10 mM MgCl2, 250 μM NADH, 3 mM phosphoenolpyruvate, 60 μg/mL pyruvate kinase, 21 μg/mL lactate dehydrogenase, 113 μM ATP and 28 nM Src. To 60 μL of this solution, in a 96 well plate, was added 2 μL of test compound stock solution in DMSO and the mixture allowed to equilibrate for 10 mins at 30° C. The enzyme reaction was initiated by the addition of 5 μL 10 mg/mL poly Glu, Tyr (4:1) prepared in 25 mM HEPES (pH 7.5). Final assay concentrations of Src and ATP were 25 nM and 100 μM respectively. Initial rate data was determined from the rate of change of absorbance at 340 nm (corresponding to stoichiometric consumption of NADH) using a Molecular Devices Spectramax plate reader (Sunnyvale, Calif.) over 10 mins at 30° C. For each Ki determination 8 data points covering the test compound concentration range of 0-7.5 μM were obtained in duplicate. Ki values were calculated from initial rate data by non-linear regression using the Prism software package (Prism 4.0a, Graphpad Software, San Diego, Calif.).

Chain of human Lck kinase (P06239 whole entry): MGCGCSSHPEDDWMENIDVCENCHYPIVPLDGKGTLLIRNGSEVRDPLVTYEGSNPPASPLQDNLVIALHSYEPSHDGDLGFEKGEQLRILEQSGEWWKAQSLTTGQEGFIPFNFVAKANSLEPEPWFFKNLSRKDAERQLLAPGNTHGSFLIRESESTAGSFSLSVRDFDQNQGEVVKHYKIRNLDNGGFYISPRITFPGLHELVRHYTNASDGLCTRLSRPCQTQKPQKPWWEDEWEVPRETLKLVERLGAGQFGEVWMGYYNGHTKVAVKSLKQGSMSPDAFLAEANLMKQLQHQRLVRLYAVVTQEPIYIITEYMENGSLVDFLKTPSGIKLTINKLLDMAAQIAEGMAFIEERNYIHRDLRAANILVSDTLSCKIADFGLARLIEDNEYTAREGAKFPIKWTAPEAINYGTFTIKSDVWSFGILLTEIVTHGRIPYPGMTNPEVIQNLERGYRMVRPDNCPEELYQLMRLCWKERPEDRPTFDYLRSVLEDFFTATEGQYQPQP

Ki (human Lck kinase): < 1 µM
Ki (human Src kinase): < 1 µM
Compound: Nc1nccc2c1c(-c1ccc(Oc3ccccc3)cc1)cn2C1CCCC1 [Compound I-1, 1-Cyclopentyl-3-(4-phenoxyphenyl)-1H-pyrrolo[3,2-c]pyridin-4-amine]

— patent US7659283B2, “Pyrrolo [3,2-C] pyridines useful as inhibitors of protein kinases” (Vertex Pharmaceuticals Incorporated, priority 2006, dated 2010)
